We go through 41 compounds from PubChem BioAssay AID504542 (Sanford-Burnham Center for Chemical Genomics, 2011).

Each structure is given as a SMILES string. Calls of active or inactive are those of the source. The rule behind the calls is not given here.

This assay has as its system S. cerevisiae TIM10 counterscreen strain, luminescence. The experiment in a line: inhibitors of TIM10 yeast strain luminescence, dose response, counter-screen for tim10-1 inhibitor project, S. cerevisiae, uHTS hits (AID 504542). In general terms: Counterscreens check selectivity or assay interference.

For the compound `O=c1oc2ccccc2c(O)c1/C=C1\C=Nc2ccccc21`, the half-inhibitory concentration (IC50) is 6.1 µM. In the case of `O=C(Nc1cccc(N2C(=O)C=CC2=O)c1)c1cccs1` it was 2.61 µM.

Take `Cc1ccccc1OCC(=O)Nc1ccc(S(=O)(=O)N2CCCC2)cc1`: the concentration for half-maximal inhibition (IC50) was 5.36 µM. The same measure for `CCOC(=O)c1cc(-c2cccs2)nc2c1c(C)nn2-c1ccccn1`: 8.92 µM. The same measure for `Fc1c(F)c(C(F)(F)F)c(F)c(F)c1N/N=C\c1cccs1`: 4 µM; for `c1ccc(Nc2cccc(Nc3ccccc3)n2)cc1`: 5.97 µM; for `Cc1ccc(CNC(=O)c2ccc(Cn3nc(C)c(Cl)c3C)o2)cc1`: 10.1 µM. Turning to `Cn1c(/C=C/c2ccc([N+](=O)[O-])o2)nc2ccccc2c1=O`, the IC50 was 4.94 µM. The same measure for `C/C(=N\NC(=S)NCc1ccccc1)c1ccc(Cl)s1`: 11.6 µM; for `Cc1ccc(NC(=O)c2ccc(Cl)c(N3C(=O)C=CC3=O)c2)cc1`: 4.36 µM. The same measure for `Cc1ccc(NC(=S)/N=C(\N)Nc2nc(C)c3cc(C)ccc3n2)c(C)c1`: 12.1 µM; for `O=C(OCn1ncc(Br)c(Br)c1=O)c1ccccc1Cl`: 1.41 µM; for `CN=C(Nc1cc(Cl)ccc1Cl)SC1CC(=O)N(c2ccc(C(=O)OC)cc2)C1=O` (stereo unspecified): 6.33 µM. The same measure for `c1ccc(Nc2cccc(Nc3ccccc3)c2)cc1`: 5.02 µM. With `Nc1nc(-c2ccc(Br)cc2)cs1`, the 50% inhibitory concentration (IC50) is 10.4 µM.

On to `COc1ccc(-c2sc3cc4c(cc3c2C#CC2(N)CCCCC2)OCO4)cc1`, for which the half-maximal inhibitory concentration (IC50) was 8.21 µM.

Turning to `Cc1ccc(F)c([C@H]2[C@@H]3C=CCC[C@@]3(C)C(=O)N2Cc2ccccc2)c1`, the IC50 is 7.6 µM. In the case of `CCOC(=O)c1c(CSc2ccc(C)cc2)n(C)c2cc(Br)c(O)c(CN(C)C)c12` it was 12.8 µM; in that of `Nc1nc(N)c(C=Nc2ccc(Br)cc2)c(Nc2ccc(Br)cc2)n1`, 10.8 µM; in that of `CCOC(=O)c1c(OCC)[nH]c2c1cc(O)c1ccccc12`, 8.27 µM.

With `C=CC(=O)Oc1ccc(N2Cc3ccccc3C2=O)cc1`, the half-inhibitory concentration (IC50) is 2.89 µM. The same measure for `Cc1ccc(S(=O)(=O)c2nc(S(C)(=O)=O)sc2N2CCCCC2C)cc1` (stereo unspecified): 2.35 µM. The same measure for `COc1ccc(C(=O)Nc2ccc(-n3nncc3C(C)(C)C)cc2)cc1`: 6.59 µM; for `COc1ccc2sc(N(CCCN(C)C)C(=O)c3ccc(S(=O)(=O)N4CCCc5ccccc54)cc3)nc2c1`: 8.76 µM.

`CC(C)(C)OC(=O)N[C@@H](Cc1ccccc1)c1nnc(S(=O)(=O)Cc2cccc(F)c2)o1`: the concentration for half-maximal inhibition (IC50) is 1.19 µM. In the case of `CCSc1nc2ccccc2n1C(=O)/C=C\c1ccc(OC)c(OC)c1` it was 7.72 µM.

As for `N=C(N)c1ccc(/C=C/c2ccc(C(=N)N)cc2O)cc1`, the IC50 is 4.36 µM. `Cc1ccc(NC(=S)Nc2ccc(Cl)c(Cl)c2)c(OC(F)F)c1`: the IC50 was 9.07 µM.

For `CCOc1ccccc1N1C(=O)CC(Sc2n[nH]c(-c3ccccc3)n2)C1=O` (stereo unspecified), the IC50 was 2.27 µM.

Turning to `O=C(NC(=S)NNC(=O)c1ccccc1[N+](=O)[O-])c1ccc(Br)cc1`, the IC50 was 6.64 µM. In the case of `O=C1C2C3C=CC(CO)(O3)C2C(=O)N1c1ccccc1-c1ccccc1` (stereo unspecified) it was 1.27 µM. Turning to `O=C1CS(=O)(=O)N(Cc2cccc(F)c2)c2ccc(Br)cc21`, the half-inhibitory concentration (IC50) is 4.69 µM. In the case of `CCOC(=O)/C=C/C(=O)Nc1cccc([N+](=O)[O-])c1` it was 1.9 µM. The same measure for `CC(C)(C)c1ccc(CN2N=Nc3ccccc3S2(=O)=O)cc1`: 2.99 µM; for `Cc1onc(-c2ccc3c(c2)OCO3)c1-c1ccc2[nH]ccc2c1`: 3.49 µM; for `NC(=NCCCCCCN=C(N)/N=C(\N)Nc1ccc(Cl)cc1)/N=C(\N)Nc1ccc(Cl)cc1`: > 100 µM (inactive). In the case of `O=C(NC(=S)Nc1ccccc1N1CCCC1)c1ccc([N+](=O)[O-])cc1` it was 8.53 µM; in that of `CC(C)c1nnc(NC(=O)CCS(=O)(=O)c2nc(-c3cccs3)cc(C(F)(F)F)n2)s1`, 4.84 µM. In the case of `O=c1c2ccccc2[se]n1-c1ccccc1`, the half-inhibitory concentration (IC50) was 0.58 µM. As to `COc1ccc(/C=C/C(=O)c2ccccc2)cc1Cn1nnc2ccccc21`, the half-inhibitory concentration (IC50) was 3.86 µM.

On to `CC(C)Nc1nnc(Sc2ccc(Cl)cc2[N+](=O)[O-])s1`, for which the 50% inhibitory concentration (IC50) is 2.28 µM.

Broadly, the IC50 is the concentration that inhibits the measured activity by half.
